Values quoted from earlier work in patent US12482537B2, “System of predicting sensitivity of Klebsiella against MeropeneM and method” (priority 2023, dated 2025).

Tested on: carbapenem resistant Klebsiella pneumoniae
Conditions: isolates from 2014 to 2017 (252/403)

In the case of C[C@@H](O)[C@H]1C(=O)N2C(C(=O)O)=C(S[C@@H]3CN[C@H](C(=O)N(C)C)C3)[C@H](C)[C@H]12 [Meropenem], the “resistance rate against meropenem” value is given as 62.5%.
